The results in this text go back to patent publication US11028061B2, “Modulators of myocyte lipid accumulation and insulin resistance and methods of use thereof” (Sanford Burnham Prebys Medical Discovery Institute, priority 2015, dated 2021).

One test relates to rat H9c2 myocytes. The test is described as follows: Inhibition of TAG accumulation in rat H9c2 myocytes. Format: cell-based. The conditions noted are these: data not shown.
For another test, the system named is TXNIP. The test is described as follows: TXNIP protein levels by western blot. The format is cell-based. Particulars: human myotubes. How it is done: FIGS. 4A-C show downregulation of TXNIP and ARRDC4 expression by SBI-477. (FIG. 4A) TXNIP and ARRDC4 mRNA levels as determined by quantitative RT-PCR in human myotubes treated with SBI-477 (10 μM) or DGAT1 inhibitor (DGATi, […]) for 24 hours in the absence or presence of 100 μM oleate (n=4). Expression is shown relative to vehicle/BSA treatment. (FIG. 4B) TXNIP gene expression following exposure to a dose range of SBI-477 for 24 hours (n=4). (FIG. 4C) Left, Effect of SBI-477 on TXNIP protein levels as determined by western blot analysis by SBI-477. Right, Quantitation of the TXNIP western blot data is shown (n=5). *p<0.05 vs. Vehicle/BSA control, †p<0.05 vs. Vehicle/oleate by one-way ANOVA with Bonferroni post hoc test. The data are shown as mean±SD.
Cells were lysed in the RIPA buffer containing 1% NP-40, 5 mM Na4P2O7, 1 mM EDTA, 20 mM NaF, 2 mM Na3VO4, 1× cOmplete™ protease inhibitor (Roche) and 1 mM phenylmethylsulfonyl fluoride. Whole cell lysates were subjected to SDS-PAGE and transferred to a nitrocellulose membrane. The blots were hybridized with specific antibodies and developed with enhanced chemiluminescence kit (Pierce). […] Protein quantification was performed using FluorChemQ (Alpha Innotech) and normalized to […]-actin or total protein where indicated.
(A western blot detects proteins with antibodies after separation by electrophoresis.)

The test system of test [1] is insulin receptor substrate 1 (IRS-1). As to the kind of experiment: Western blot of IRS-1 phosphorylation. Format: cell-based, human. Particulars: 24 hours. How it is done:
FIGS. 3A, B, C, E and F show SBI-477 stimulation of glucose uptake and activates insulin signaling in the absence of insulin. Human skeletal myotubes were incubated with SBI-477 at the indicated concentration for 24 hours and then treated with or without insulin (100 nM) for 30 minutes. Glucose ([3H]-2-deoxyglucose, 2-DG) uptake (FIG. 3A) and glycogen synthesis rates (FIGS. 3B and 3C) were measured (n=5) as described in Methods. *p<0.05 vs. Vehicle, no insulin, †p<0.05 vs. Vehicle/insulin by two-way ANOVA with Tukey's post hoc test. (FIG. 3E) Western blot analysis of human myotubes treated with SBI-477 for 24 hours was performed to determine the effect on steps of the insulin signaling pathway using specific Akt and IRS-1 phosphorylation sites as endpoints. Insulin treatment (100 nM) for 30 minutes was used as positive control. (FIG. 3F) Quantitation of the western blot data in […] is shown (n=5). *p<0.05 or **p<0.01 vs. Vehicle by one-way ANOVA with Bonferroni post hoc test. The data represent mean±SD.
Cells were lysed in the RIPA buffer containing 1% NP-40, 5 mM Na4P2O7, 1 mM EDTA, 20 mM NaF, 2 mM Na3VO4, 1× cOmplete™ protease inhibitor (Roche) and 1 mM phenylmethylsulfonyl fluoride. […] Protein quantification was performed using FluorChemQ (Alpha Innotech) and normalized to […]-actin or total protein where indicated.

In test [2] the test system is primary human skeletal myotubes. As to the kind of experiment: Fatty acid oxidation (FAO) assay, 3H-palmitate. Format: cell-based. The conditions noted are these: 24 hours. How it is done: FAO rates were determined for primary human skeletal myotubes with or without SBI-477 using 125 μM [3H]-palmitic acid (Djouadi, et al., Mol Genet Metab. 2003; 78(2):112-118). Primary human skeletal myotubes were grown and differentiated in 24-well plates. Cells were treated with the indicated concentration of SBI-477 for 24 hours. Following compound treatment, cells were rinsed three times with PBS and then incubated in 125 μM [3H]-palmitic acid (60 Ci/mmol) bound to fatty acid free albumin containing 1 mM carnitine for 2 hours at 37° C. The cell medium was transferred to a tube containing cold 10% trichloroacetic acid (TCA). The tubes were centrifuged at 8,500×g for 10 minutes at 4° C. The supernatant was immediately removed, mixed with 6N NaOH, and applied to ion-exchange resin (DOWEX 1; Sigma-Aldrich). The eluate was collected, measured by liquid scintillation analyzer (PerkinElmer) and normalized to total protein amount. The amount of cell protein was measured by Micro BCA protein assay kit (Thermo Scientific).

For another test, the system named is human skeletal myotubes. The test is described as follows: Quantitative lipidomic analyses and TAG biosynthesis pathway modeling. Format: cell-based. The conditions noted are these: oleate-loaded myotubes. How it is done: Quantitative lipidomic analyses was performed on human skeletal myotubes exposed to bovine albumin serum (BSA) or 100 μM oleate in the presence of DMSO vehicle (white bars) or 10 μM SBI-477 (black bars) for 24 hours.
Primary human myotubes were treated with BSA or 100 μM oleate with 10 μM SBI-477 or a vehicle control for 24 hours. The cells were added to […] in an Eppendorf tube and homogenized for 1 minute using a disposable soft tissue homogenizer. A 25 μL aliquot was used to determine the protein content (BCA protein assay kit, Thermo Scientific, Rockford, Ill.). The remaining homogenate was accurately transferred into a disposable glass culture test tube, and a mixture of lipid internal standards was added prior to lipid extraction for quantification of all reported lipid species. Lipid extraction was performed by using a modified Bligh and Dyer procedure as described previously (Wang and Han, 2014). Each lipid extract was resuspended into a volume of 500 μL of chloroform/methanol (1:1, v/v) per mg of protein and flushed with nitrogen, capped, and stored at −20° C. for lipid analysis. For ESI direct infusion analysis, lipid extract was further diluted to a final concentration of ˜500 fmol/μL, and the mass spectrometric analysis was performed on a QqQ mass spectrometer (Thermo TSQ VANTAGE, San Jose, Calif.) equipped with an automated nanospray device (TriVersa NanoMate, Advion Bioscience Ltd., Ithaca, N.Y.).
Intracellular TAG can be formed through reacylation of DAG species generated from several pathways including a de novo glycerolphosphate biosynthetic pathway that involves dephosphorylation of phosphatidic acid (DAGPA), reacylation of monoacylglycerol (DAGMAG), and to a lesser extent, hydrolysis of phosphatidyl inositol (DAGPI). […] This approach uses the individual TAG ion profile, as determined by mass spectrometry, to predict the relative contribution of each pathway to the overall cellular TAG pool. […]

Usually EC50 stands for the concentration at which the effect is half-maximal. A high value points to a need for much substance.

In the test on rat H9c2 myocytes, `COc1ccc(-c2csc(NC(=O)c3ccc(OCC(=O)N4CCOCC4)c(OC)c3)n2)cc1` [Cpd. 7, 3-methoxy-N-(4-(4-methoxyphenyl)thiazol-2-yl)-4-(2-morpholino-2-oxoethoxy)benzamide] came in with an EC50 of roughly 100 nM. Besides, the TXNIP protein levels entry in the test on TXNIP is “reduced by SBI-477 in dose-dependent manner”. The “IRS-1 phosphorylation at serine sites 636/639” value in test [1] is “decreased”. Moreover, the “Tyrosine phosphorylation of IRS-1” value in test [1] (absence of insulin) was “increased”. For the same molecule, the FAO rates entry in test [2] is recorded as “increased by SBI-477 in a dose-dependent manner”. Also, the “Levels of ceramide and total sphingomyelin” value in the test with human skeletal myotubes is “not significantly altered”. Further, in the test on human skeletal myotubes (24 hour exposure), the DAG species levels result is given as “reduced” and the TAG species levels entry is reported as “reducing all TAG species measured”.
